Test [1] has as its system rabbit articular chondrocytes (IL-1-induced neutral protease release). Kind of test: Inhibition of IL-1-induced release of neutral protease from rabbit articular chondrocytes. It is filed as cell-based, rabbit (Male New Zealand White). To be noted: Oryctolagus cuniculus, Chondrocyte, human IL-1 stimulated, 24 h. As to the method:
The ability of the compounds of the invention to inhibit interleukin 1 is measured by the ability of the test compounds to inhibit the IL-1-induced release of neutral protease from rabbit articular chondrocytes.
Male New Zealand White rabbits are anesthetized with 50 mg/kg of ketamine (i.m.) and killed by an intracardiac injection of 3 mls. of Nembutal. The knee joints of both legs are resected and the articular surfaces are exposed. Cartilage slices are obtained using a scalpel and are placed in a tissue culture dish (100 mm diameter) containing 10 mls of Hank's balanced salt solution (HBSS). The chondrocytes within the cartilage slices are then liberated by a series of enzyme digestions. The slices are incubated for 10 minutes at 37° C. in 0.05% hyaluronidase (Sigma H-3884), rinsed with HBSS and incubated with 0.2% trypsin (Sigma T-2395) for 10 minutes at 37° C. The slices are rinsed again and incubated for 10 minutes at 37° C. with 1.2% collagenase (Sigma C-5138). The slices are then rinsed again with HBSS and resuspended in 10 ml of Ham's F-12 medium containing 10% fetal bovine calf serum (FCS) and 0.2 % collagenase and incubated overnight at 37° C. in a 5% CO2 incubator. The next day, the medium containing the digested cartilage fragments and liberated chondrocytes is transferred to a 15 ml centrifuge tube and the cells are collected by centrifugation and washed twice and resuspended in Ham's F-12 medium. The cells are then plated into 24-well tissue culture plates (2×10^5 cells/well) and incubated at 37° C. until confluent (usually 4-6 days).
The confluent chondrocytes are rinsed twice with serum-free Ham's F-12 medium and 1 ml is added to each well. Fifty μl of purified human IL 1 (100 Units/ml; Genzyme Corporation, Boston, Mass.) is then added to stimulate these cells to secrete neutral protease. To measure drug effects, the cells are treated with test compound 10 minutes prior to addition of IL-1. The standard screening dose is 10 μM. Twenty-four hours after IL-1 stimulation, supernatant fluids are collected and assayed for neutral protease activity.
The neutral protease activity of chondrocyte supernatant fluids is determined by their ability to degrade an insoluble protease substrate, azocoll (Sigma). Supernatants are treated for 10 minutes at room temperature with 350 μM p-aminophenylmurcuric acetate to activate the latent enzyme. Three hundred μl of supernatant is then mixed with 500μl of a 20 mg/ml suspension of azocoll and incubated at 37° C. for 18-24 hours with gentle rocking. The mixtures are centrifuged and the amount of substrate hydrolyzed is determined by measuring the absorbance of the supernatant at 520 nm.
Drug effects are calculated as the % change in enzyme activity (absorbance)by supernatants from drug-treated chondrocytes relative to enzyme activity of supernatants from vehicle-treated chondrocytes as follows: [formula]

Test [2] concerns rat limb bones (PTH-induced bone resorption). The test can be described thus: Bone resorption assay (45Ca release from rat limb bones), PTH-induced. It is filed as cell-based, rat (Sprague-Dawley CD). To be noted: 48 h; for IC50: Rattus norvegicus, read-out: Inhibition of Bone Resorption, PTH-Induced (IC50). As to the method:
(§1) The ability of the compounds of the invention to modify the process of bone resorption is evaluated in the bone resorption assay measuring ^45 Ca release from rat limb bones.
(§2) Limb bone preparation. Timed pregnant Sprague-Dawley CD® rats (Charles River) are administered 100 μCi ^45 CaCl2 (NEN calcium -45 NEZ-013) in 100 μl of 0.9% saline, subcutaneously, on day 18 of gestation. The rats are sacrificed the following day by CO2 asphyxiation. The fetuses are removed and the right forelimbs excised and placed in a Petri dish containing ice cold explant medium consisting of modified BGJb -Fitton Jackson media (custom formulation, Gibco No. 78-0088) adjusted to pH 7.3 to which 10 mM TES is added. The modified BGJb media is obtained without salts, glucose or bicarbonate and is supplemented before use with 0.1 mM MgCl2, 1.25 mM CaCl2, 5.3 mM KCl, 0.7 mM MgSO4, 130 mM NaCl, 1.0 mM NaH2 PO4, 1 g/L glucose, 50 mg/L Na acetate and 100 U/ml penicillin G. The medium is sterilized by passage through a 0.2 μ M filter (Nalge). Under a dissecting microscope, the bones are gently cleaned of adherent tissue and the cartilaginous ends removed. Incubation and drug treatment. The midshafts are placed, individually, on 3×3 mm squares of filter paper (Gelman GN-6 metricel filters; […] pore size) which rest on stainless steel screens in wells of 24-well culture plates containing 0.5 mL of preincubation medium. The preincubation medium is brought to 37° C. prior to transfer of bones. The preincubation medium consists of the modified BGJb medium (with salts and glucose as above), pH 7.3, containing 29 mM NaHCO3. After incubation for 18-24 hours at 37° C. in 5% CO2, the bones are transferred on their screen/filter paper supports to new plates containing, in a total volume of 0.5 mL/well at 37° C., the test compound diluted in preincubation medium supplemented with 15% heat inactivated horse serum (Gibco No. 230-6050), pH 7.3, with a bone resorption stimulating agent (e.g. parathyroid hormone [PTH] or interleukin-1 [IL-1]). For compounds that require nonaqueous solvents, dilutions are made from the appropriate stock solution with medium. In these instances, basal and bone resorption stimulated controls exposed to an equivalent concentration of the vehicle are included. An additional group of bones that have been subjected to boiling for 1 hour (kill control) are used to establish background, non cell mediated, exchange of ^45 Ca. The right ulna and radius from each fetus are used. Both bones are subjected to the same treatment and each treatment group consists of bones from 4 or more fetuses. Treatments are randomly assigned using a preclinical statistics program (PS-ALLOC). After a 48 hour incubation at 37° C. in 5% CO2, the bones are removed from the medium and extracted in 0.5 mL of 0.1N HCl for 1 or more days. Duplicate 150 μL aliquots of the incubation medium and the bone extract are analyzed for ^45 Ca radioactivity in 5 mL of liquid scintillation cocktail.
(§3) The percentage of bone ^45 Ca released into the medium is determined as follows: [formula] Results are normally expressed as the ratio of the percent ^45 Ca release of the experimental group versus the appropriate vehicle control, or as an IC50 value.

Test [3] deals with rat limb bones (IL-1 induced bone resorption). The test can be described thus: Bone resorption assay (45Ca release from rat limb bones), IL-1 induced. To be noted: 48 h; for IC50: Rattus norvegicus, read-out: Inhibition of Bone Resorption, IL-1 Induced (IC50). It is filed as cell-based, rat (Sprague-Dawley CD). As to the method: as §1, §2, §3

≈ marks a conversion by molar mass, not a printed value. Bounds are passed on as bounds.

As a reminder, the inhibition is the percentage by which the read-out fell short of the control. For orientation: IC50 means the concentration that inhibits the measured activity by half. `CS(=O)(=O)c1ccc(N2CCc3[nH]c4c(cnc5cc(Cl)ccc54)c3C2)cc1` [Example 1, 3-Chloro-8,9,10,11-tetrahydro-8-[4-(methylsulfonyl)phenyl]-7H-pyrido[3',4':4,5]pyrrolo[3,2-c]quinoline] registered an inhibition at 10 µM in test [1] of 40%. Moreover, in test [2], the “Inhibition of Bone Resorption, PTH-Induced (activity in words)” value is “Active” and the concentration for half-maximal inhibition (IC50) amounted to 0.633 µg/mL (≈ 1.54 µM). In test [3], the “Inhibition of Bone Resorption, IL-1 Induced (activity in words)” value is on record as “Active” and the IC50 came to 6.84 µg/mL (≈ 16.6 µM).

`O=C(c1cccs1)N1CCc2[nH]c3c(cnc4cc(Cl)ccc43)c2C1` [Example 4, 3-Chloro-8,9,10,11-tetrahydro-8-(2-thienylcarbonyl)-7H-pyrido[3',4':4,5]pyrrolo[3,2-c]quinoline] returned an inhibition at 0.1 µM in test [1] (dose 0.1 μM) of 14%. In test [1], this molecule showed an inhibition at 1 µM of 20%, an inhibition at 10 µM of 64% and a half-inhibitory concentration (IC50) of 7.3 µM. The “Inhibition of Bone Resorption, IL-1 Induced (activity in words)” value in test [3] is listed as “Active at <5 μg/ml”.

In test [1], `N#Cc1ccc(N2CCc3[nH]c4c(cnc5cc(Cl)ccc54)c3C2)cc1` [Example 3, 4-(3-Chloro-8,9,10,11-tetrahydro-7H-pyrido[3',4':4,5]-pyrrolo[3,2-c]quinolin-8-yl)benzonitrile] returned an inhibition at 10 µM of 22%.

In turn, `O=C(Oc1ccccc1)N1CCc2[nH]c3c(cnc4cc(Cl)ccc43)c2C1` [Example 12, 3-Chloro-7,9,10,11-tetrahydro-8H-pyrido[3',4':4,5]pyrrolo-[3,2-c]quinoline-8-carboxylic Acid Phenyl Ester] had an inhibition at 10 µM in test [1] below 20%. In test [2], the “Inhibition of Bone Resorption, PTH-Induced (activity in words)” value is on record as “Active” and the IC50 turned out to be 0.274 µg/mL (≈ 0.725 µM). Also, in test [3], the “Inhibition of Bone Resorption, IL-1 Induced (activity in words)” value is “Active” and the half-maximal inhibitory concentration (IC50) worked out at 0.76 µg/mL (≈ 2.01 µM).

In test [1], `O=C(c1ccccc1)N1CCc2[nH]c3c(cnc4cc(Cl)ccc43)c2C1` [Example 6, 8-Benzoyl-3-Chloro-8,9,10,11-tetrahydro-7H-pyrido[3',4':4,5]pyrrolo[3,2-c]quinoline] yielded an inhibition at 10 µM of 57%. Also, the “Inhibition of Bone Resorption, PTH-Induced (activity in words)” value in test [2] is given as “Active at 10 μg/ml”. The “Inhibition of Bone Resorption, IL-1 Induced (activity in words)” value in test [3] is recorded as “Active at 5 μg/ml”.

In test [1], `O=C(c1ccco1)N1CCc2[nH]c3c(cnc4cc(Cl)ccc43)c2C1` [Example 9, 3-Chloro-8-(2-furanylcarbonyl)-8,9,10,11-tetrahydro-7H-pyrido[3',4':4,5]pyrrolo[3,2-c]quinoline] displayed an inhibition at 10 µM of 36%. For the same molecule, in test [2], the “Inhibition of Bone Resorption, PTH-Induced (activity in words)” value is reported as “Active” and the IC50 was 2.88 µg/mL (≈ 8.19 µM). For the same molecule, in test [3], the “Inhibition of Bone Resorption, IL-1 Induced (activity in words)” value is listed as “Active” and the IC50 was 0.307 µg/mL (≈ 0.873 µM).

In test [1], `O=C(c1cc2ccccc2s1)N1CCc2[nH]c3c(cnc4cc(Cl)ccc43)c2C1` [Example 10, 8-(Benzo[b]thien-2-ylcarbonyl)-3-chloro-8,9,10,11-tetrahydro-7H-pyrido[3',4':4,5]pyrrolo[3,2-c]quinoline] displayed an inhibition at 10 µM of 24%. For the same molecule, in test [3], the “Inhibition of Bone Resorption, IL-1 Induced (activity in words)” value is “Active” and the IC50 was 0.067 µg/mL (≈ 0.16 µM).

With `O=C(Nc1ccccc1)N1CCc2[nH]c3c(cnc4cc(Cl)ccc43)c2C1` [Example 7, 3-Chloro-7,9,10,11-tetrahydro-N-phenyl-8H-pyrido-[3',4':4,5]pyrrolo[3,2-c]quinoline-8-carboxamide], the inhibition at 10 µM in test [1] amounted to 21%.

Molecule `CCOC(=O)c1ccc(N2CCc3[nH]c4c(cnc5cc(Cl)ccc54)c3C2)cc1` [Example 2, 4-(3-Chloro-8,9,10,11-tetrahydro-7H-pyrido[3',4':4,5]-pyrrolo[3,2-c]quinolin-8-yl)benzoic acid ethyl ester] gave an inhibition at 10 µM in test [1] of 38%. In test [2], the “Inhibition of Bone Resorption, PTH-Induced (activity in words)” value is on record as “Active” and the concentration for half-maximal inhibition (IC50) came out at 0.98 µg/mL (≈ 2.41 µM). In test [3], the “Inhibition of Bone Resorption, IL-1 Induced (activity in words)” value is listed as “Active” and the concentration for half-maximal inhibition (IC50) is 3.39 µg/mL (≈ 8.35 µM).

For the molecule `N#Cc1ccc(C(=O)N2CCc3[nH]c4c(cnc5cc(Cl)ccc54)c3C2)cc1` [Example 5, 3-Chloro-8-(4-cyanobenzoyl)-8,9,10,11-tetrahydro-7H-pyrido[3',4':4,5]pyrrolo[3,2-c]quinoline], the inhibition at 10 µM in test [1] turned out to be 28%.

In the case of `O=C(c1ccncc1)N1CCc2[nH]c3c(cnc4cc(Cl)ccc43)c2C1` [Example 8, 3-Chloro-8,9,10,11-tetrahydro-8-(4-pyridinylcarbonyl)-7H-pyrido[3',4':4,5]pyrrolo[3,2-c]quinoline], the inhibition at 10 µM in test [1] was determined as 35%. In addition, the “Inhibition of Bone Resorption, PTH-Induced (activity in words)” value in test [2] is “Active at 10 μg/ml”. Also, in test [3], the “Inhibition of Bone Resorption, IL-1 Induced (activity in words)” value was “Active” and the IC50 turned out to be 1.96 µg/mL (≈ 5.4 µM).

As to `O=S(=O)(c1cccs1)N1CCc2[nH]c3c(cnc4cc(Cl)ccc43)c2C1` [Example 11, 3-Chloro-8,9,10,11-tetrahydro-8-(2-thienylsulfonyl)-7H-pyrido [3',4':4,5]pyrrolo[3,2-c]quinoline], the inhibition at 1 µM in test [1] is below 20%. Further, in test [2], the “Inhibition of Bone Resorption, PTH-Induced (activity in words)” value is given as “Active” and the IC50 was 0.144 µg/mL (≈ 0.357 µM). In test [3], the “Inhibition of Bone Resorption, IL-1 Induced (activity in words)” value is recorded as “Active” and the IC50 was found to be 0.018 µg/mL (≈ 0.0446 µM).

The record behind these values is patent US5281608A, “Substituted tetrahydropyrido[3',4':4,5]-pyrrolo[3,2-c]quinolines” (American Home Products Corporation, priority 1992, dated 1994).
